Assay results as given in US20120239131A1, “METHODS AND APPARATUS FOR TREATMENT OF ANEURYSMAL TISSUE” (Medtronic Vascular, Inc., priority 2011, published 2012).

Assays:
Format in all cases: in vivo, ApoE−/− mice
NFKb1 = experiment: Aortic mural gene expression, RT-PCR (TLDA); settings: fold change over ApoE−/− control; aorta, 28 days Ang II infusion
Experimental: (§1) Total RNA was extracted from homogenized aortas using the Qiazol lysis reagent and RNeasy Lipid Tissue Mini kit. DNAse treatment was included in the procedure. RNA concentration was determined utilizing the Quant iT RNA assay kit. Complimentary deoxyribonucleic acid (cDNA) was synthesized from 1 μg RNA using High reverse cDNA transcription kit. Briefly the reaction tubes containing RNA, reverse transcriptase, buffer, RNAse inhibitor, and nuclease free water were incubated at 25° C. for 10 minutes to allow annealing. […] The cDNA samples were cooled at 4° C. and stored at −80° C. until further use.
(§2) Real time PCR was performed using a 384-well Taqman low density array (TLDA) card. Each sample specific PCR mix contained 50 ng of total RNA converted to cDNA. The PCR reaction for Taqman assays contained 50 μl Master Mix (Taqman Universal PCR Master Mix,) and 50 ul of cDNA and RNAase free water. Assays were performed to include appropriate controls (no template control). The RT-PCR protocol included an initial step of 50° C. […] Fluorescence data was collected at 60° C. Fluorescence was quantified with ABI PRISM 7900HT Sequence Detection System. To verify amplification of a specific target cDNA, data generated was analyzed using SDS 2.2.3 software (Sequence Detection System Software, Applied Biosystems). […] For relative quantification (RQ), pooled ApoE−/− control was used as the calibrator (with expression equal to 1).

AAA = experiment: Aortic diameter by ultrasonography, ApoE−/−+Ang II AAA model; settings: pretreatment 1 week before Ang II infusion, followed to 28 days, versus control and doxycycline
Source text: The ApoE^−/−+Ang II AAA model is well established and supported by current scientific literature. Mice genetically predisposed to hypercholesterolemia develop aneurysms when treated with angiotensin II. Aneurysms generally develop within the first week after pump implantation and share many important pathologic characteristics with human AAA disease. ApoE−/− mice used in this study were divided into different pretreatment groups: 1) Fluvastatin-MF; 2) Doxycycline-MD; 3) Irbesartan-MI; 4) Telmisartan-MT; 5) Control (water) and fed medicated chow or medicated drinking water 1 week prior to pump implantation. AngII (1000 ng·kg^−1 of body weight·min^−1) was infused subcutaneously via Alzet mini-osmotic pumps for 28 days. All mice were maintained on the medicated chow (MI & MT) or medicated drinking water (MF & MD) treatments which were delivered daily for a total of 28 days following pump implantation. In order to determine the effect of the various treatments on the progressive enlargement of the experimental AAAs the mice were followed with high frequency trans-abdominal ultrasound. Maximum aortic diameter was measured and recorded prior to pump implantation and then at 3, 7, 14, 21, and 28 days. All mice were sacrificed 28 days after pump implantation. Aortae were harvested and subjected to either histological analysis (Elastic Masson trichome, MAC2, CD31 and TUNEL staining) and analysis of mural gene expression. Plasma drug concentrations of experimental compounds were quantified on the day of sacrifice using high performance liquid chromatography (HPLC).

CSF1 = experiment: Aortic mural gene expression, RT-PCR (TLDA); settings: fold change over ApoE−/− control; aorta, 28 days Ang II infusion
Experimental: as §1, §2

ITGAL = experiment: Aortic mural gene expression, RT-PCR (TLDA); settings: fold change over ApoE−/− control; aorta, 28 days Ang II infusion
Experimental: ApoE−/− mice used in this study were divided into different pretreatment groups: 1) Fluvastatin-MF; 2) Doxycycline-MD; 3) Irbesartan-MI; 4) Telmisartan-MT; 5) Control (water) and fed medicated chow or medicated drinking water 1 week prior to pump implantation. AngII (1000 ng·kg^−1 of body weight·min^−1) was infused subcutaneously via Alzet mini-osmotic pumps for 28 days. All mice were maintained on the medicated chow (MI & MT) or medicated drinking water (MF & MD) treatments which were delivered daily for a total of 28 days following pump implantation.
In order to determine the effect of the various treatments on the progressive enlargement of the experimental AAAs the mice were followed with high frequency trans-abdominal ultrasound. Maximum aortic diameter was measured and recorded prior to pump implantation and then at 3, 7, 14, 21, and 28 days. All mice were sacrificed 28 days after pump implantation. Aortae were harvested and subjected to either histological analysis (Elastic Masson trichome, MAC2, CD31 and TUNEL staining) and analysis of mural gene expression. Plasma drug concentrations of experimental compounds were quantified on the day of sacrifice using high performance liquid chromatography (HPLC).
Total RNA was extracted from homogenized aortas using the Qiazol lysis reagent and RNeasy Lipid Tissue Mini kit. DNAse treatment was included in the procedure. RNA concentration was determined utilizing the Quant iT RNA assay kit. Complimentary deoxyribonucleic acid (cDNA) was synthesized from 1 μg RNA using High reverse cDNA transcription kit. Briefly the reaction tubes containing RNA, reverse transcriptase, buffer, RNAse inhibitor, and nuclease free water were incubated at 25° C. for 10 minutes to allow annealing. Reverse transcription was performed at 37° C. for 120 min, followed by a 5 sec incubation at 85° C. to inactivate the reverse transcriptase enzyme. The cDNA samples were cooled at 4° C. and stored at −80° C. until further use.
Real time PCR was performed using a 384-well Taqman low density array (TLDA) card. Each sample specific PCR mix contained 50 ng of total RNA converted to cDNA. The PCR reaction for Taqman assays contained 50 μl Master Mix (Taqman Universal PCR Master Mix,) and 50 ul of cDNA and RNAase free water. Assays were performed to include appropriate controls (no template control). The RT-PCR protocol included an initial step of 50° C. (2 minutes) […], denaturation by a hot start at 95° C. for 10 min, followed by 40 cycles of a 2 step program (denaturation at 95° C. for 15 secs for primer annealing/extension at 60° C. for 1 min). Fluorescence data was collected at 60° C. Fluorescence was quantified with ABI PRISM 7900HT Sequence Detection System. To verify amplification of a specific target cDNA, data generated was analyzed using SDS 2.2.3 software (Sequence Detection System Software, Applied Biosystems). For all amplification plots, the baseline data were set with the automatic CT function available with SDS 2.2.3 calculating the optimal baseline range and threshold value by using the AutoCT algorithm. According to the manufacturer's instruction, a CT value of ≧39 corresponds to nonspecific amplification marking the limits of detection. For endogenous control GAPDH was normalized to B2M. For relative quantification (RQ), pooled ApoE−/− control was used as the calibrator (with expression equal to 1).

## CC(C)n1c(/C=C/C(O)CC(O)CC(=O)O)c(-c2ccc(F)cc2)c2ccccc21 (centres unmarked) [Fluvastatin]
NFKb1
  NFKb1 expression: − (0 to 1 = −)
AAA
  Inhibition of aneurysm development/growth (aortic diameter): relative good inhibition of AAA
CSF1
  CSF1 expression: − (0 to 1 = −)
ITGAL
  ITGAL expression: ++ (1.51 to 3 = ++)

## CCCc1nc2c(C)cc(-c3nc4ccccc4n3C)cc2n1Cc1ccc(-c2ccccc2C(=O)O)cc1 [Telmisartan]
NFKb1
  NFKb1 expression: − (0 to 1 = −)
AAA
  Inhibition of aneurysm development/growth (aortic diameter): effective in inhibiting aneurysm development
AAA; listed as telmisartan
  Inhibition of aneurysm development/growth (aortic diameter): effective in inhibiting/preventing aneurysm development
CSF1
  CSF1 expression: − (0 to 1 = −)
